# Data reported in patent publication US20230321253A1, “BIFUNCTIONAL COMPOUNDS AND PHARMACEUTICAL USES THEREOF” (RISEN (SUZHOU) PHARMA TECH CO., LTD., priority 2022, published 2023).
# What was measured:
# [1] = system: Aspc-1 cells; assay: Cell proliferation study in Aspc-1 cells (Cell Titer Glo); type: cell-based; conditions: Homo sapiens, ASPC1, 72 hours, read-out: IC50, inhibitory effect on cellular proliferation
# Procedure: Aspc-1 (Cobioer, CBP60546) cells were grown in RPMI 1640 (Gibco, 61870127) supplemented with 10% fetal bovine serum (Gibco, 10099141), 1% penicillin-streptomycin (Gibco, 15070-063). Aspc-1 cells in exponential growth phase were seeded into 96-well plate (Corning, 3599) at density of 4×10^3/well. Cells were cultured overnight at 37° C. with 5% CO2. On the next day, cells were treated with test compound at various concentrations for 72 hours in 37° C., 5% CO2 incubator (final DMSO concentration was 0.1%). After treatment, 100 μL Cell Tier Glo (Promega, G7573) was added to every well of the cell plates and the plates were incubated at room temperature (RT) for 10 minutes. Cell growth status was measured with Cell Tier Glo (Promega, G7573) following the manufacturer's instructions. The inhibition curve was obtained with GraphPad 7.0 software using four-parameter equation.
# [2] = target: T1, KRAS-G12D protein (Homo sapiens, UniProt P01116, G12D); assay: KRAS-G12D protein degradation study in Aspc-1 cells (western blot); type: cell-based; conditions: ASPC1, 24 h, 24 hours; for inhibition at 1 µM: Aspc-1 cells treated with 1 μM compound; for inhibition at 1 µM / inhibition at 0.1 µM: read-out: Rate of protein degradation (KRAS^G12D); for inhibition at 0.1 µM: Aspc-1 cells treated with 0.1 μM compound; for inhibition at 0.05 µM: Aspc-1 cells treated with 50 nM compound, read-out: Rate of degradation (KRAS^G12D)
# T1 construct: host or cells: Aspc-1 cells
# Outline: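 AsPC-1 cells were treated with compound for 24 h at 37° C (0.1% DMSO final), then lysed; KRAS levels measured by western blot. Degradation % = 1 − (KRAS/GAPDH, compound) ÷ (KRAS/GAPDH, DMSO), ×100; DC50 derived from concentration curves.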
# T1 sequence (P01116 1-188 isoform P01116-2 G12D): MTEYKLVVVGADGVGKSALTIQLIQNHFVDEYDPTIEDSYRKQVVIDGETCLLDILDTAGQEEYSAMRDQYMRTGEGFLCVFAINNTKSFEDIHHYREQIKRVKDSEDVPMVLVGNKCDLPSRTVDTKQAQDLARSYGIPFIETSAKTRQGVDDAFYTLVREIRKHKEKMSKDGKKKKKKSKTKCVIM
SMILES,IC50 [1],inhibition at 0.05 µM [2],further results
CCc1c(F)ccc2cc(O)cc(-c3ncc4c(N5CC6CCC(C5)N6)nc(OCCCN5CCN(C(=O)CCCCC(=O)N[C@H](C(=O)N6C[C@H](O)C[C@H]6C(=O)NCc6ccc(-c7scnc7C)cc6)C(C)(C)C)CC5)nc4c3F)c12 [Compound 26],1 to 5 µM,–,–
C#Cc1c(F)ccc2cc(O)cc(-c3ncc4c(N5CC6CCC(C5)N6)nc(OCCCN5CCN(C(=O)CCCCC(=O)N[C@H](C(=O)N6C[C@H](O)C[C@H]6C(=O)NCc6ccc(-c7scnc7C)cc6)C(C)(C)C)CC5)nc4c3F)c12 [Compound 27],0.101 to 1 µM,–,–
C#Cc1c(F)ccc2cc(O)cc(-c3ncc4c(N5CC6CCC(C5)N6)nc(OCCCN5CCN(CCCCCCC(=O)N[C@H](C(=O)N6C[C@H](O)C[C@H]6C(=O)NCc6ccc(-c7scnc7C)cc6)C(C)(C)C)CC5)nc4c3F)c12 [Compound 29],1 to 5 µM,–,inhibition at 1 µM [2]: 31 to 60%
C#Cc1c(F)ccc2cc(O)cc(-c3ncc4c(N5CC6CCC(C5)N6)nc(OCCCN5CCN(CCCCCCCC(=O)N[C@H](C(=O)N6C[C@H](O)C[C@H]6C(=O)NCc6ccc(-c7scnc7C)cc6)C(C)(C)C)CC5)nc4c3F)c12 [Compound 31],1 to 5 µM,–,inhibition at 1 µM [2]: > 60%
C#Cc1c(F)ccc2cc(O)cc(-c3ncc4c(N5CC6CCC(C5)N6)nc(OCCN5CCN(CCCCCCCC(=O)N[C@H](C(=O)N6C[C@H](O)C[C@H]6C(=O)NCc6ccc(-c7scnc7C)cc6)C(C)(C)C)CC5)nc4c3F)c12 [Compound 32],1 to 5 µM,–,inhibition at 1 µM [2]: 11 to 30%
C#Cc1c(F)ccc2cc(O)cc(-c3ncc4c(N5CC6CCC(C5)N6)nc(OCCCN5CCN(C(=O)CN6CCC(c7ccc8c(C9CCC(=O)NC9=O)nn(C)c8c7)CC6)CC5)nc4c3F)c12 (stereo not shown) [Compound 33],0.101 to 1 µM,–,inhibition at 0.1 µM [2]: 31 to 60%; inhibition at 1 µM [2]: > 60%
CCc1c(F)ccc2cc(O)cc(-c3ncc4c(N5CC6CCC(C5)N6)nc(OC[C@@H]5CCCN5C(=O)CCCCCCCC(=O)N[C@H](C(=O)N5C[C@H](O)C[C@H]5C(=O)NCc5ccc(-c6scnc6C)cc5)C(C)(C)C)nc4c3F)c12 [Compound 35],1 to 5 µM,–,inhibition at 1 µM [2]: 31 to 60%
C#Cc1c(F)ccc2cc(O)cc(-c3ncc4c(N5CC6CCC(C5)N6)nc(OC5CCN(CCCCCCCC(=O)N[C@H](C(=O)N6C[C@H](O)C[C@H]6C(=O)NCc6ccc(-c7scnc7C)cc6)C(C)(C)C)CC5)nc4c3F)c12 [Compound 39],5 to 10 µM,–,–
CCc1c(F)ccc2cc(O)cc(-c3ncc4c(N5CC6CCC(C5)N6)nc(OC5CCN(CCCCCCCCCC(=O)N[C@H](C(=O)N6C[C@H](O)C[C@H]6C(=O)NCc6ccc(-c7scnc7C)cc6)C(C)(C)C)CC5)nc4c3F)c12 [Compound 42],1 to 5 µM,–,–
C#Cc1c(F)ccc2cc(O)cc(-c3ncc4c(N5CC6CCC(C5)N6)nc(OC5CCCN(CCCCCCCCCCC(=O)N[C@H](C(=O)N6C[C@H](O)C[C@H]6C(=O)N[C@@H](C)c6ccc(-c7scnc7C)cc6)C(C)(C)C)C5)nc4c3F)c12 (stereo partly shown) [Compound 48],1 to 5 µM,–,–
C#Cc1c(F)ccc2cc(O)cc(-c3ncc4c(N5CC6CCC(C5)N6)nc(OC5CCCN(CCCCCCCCCCC(=O)N6CCC(c7ccc8c(C9CCC(=O)NC9=O)nn(C)c8c7)CC6)C5)nc4c3F)c12 (stereo not shown) [Compound 49],1 to 5 µM,–,–
C#Cc1c(F)ccc2cc(O)cc(-c3ncc4c(N5CC6CCC(C5)N6)nc(OCC5(CN(C)C(=O)CC(C)(C)CC(=O)N6CCC(c7ccc8c(C9CCC(=O)NC9=O)nn(C)c8c7)CC6)CC5)nc4c3F)c12 (stereo not shown) [Compound 137],–,≤ 10%,–
C#Cc1c(F)ccc2cc(O)cc(-c3ncc4c(N5CC6CCC(C5)N6)nc(OCC5(CN6CC7CN(C(=O)CN8CCC(c9ccc%10c(C%11CCC(=O)NC%11=O)nn(C)c%10c9)CC8)CC7C6)CC5)nc4c3F)c12 (stereo not shown) [Compound 138],–,> 60%,–
C#Cc1c(F)ccc2cc(O)cc(-c3ncc4c(N5CC6CCC(C5)N6)nc(OCC5(CN6CCC(N7CCC(c8ccc9c(C%10CCC(=O)NC%10=O)nn(C)c9c8)CC7)C(F)(F)C6)CC5)nc4c3F)c12 (stereo not shown) [Compound 139],–,31 to 60%,–
C#Cc1c(F)ccc2cc(O)cc(-c3ncc4c(N5CC6CCC(C5)N6)nc(OCC5(CN6CCC(C7CCN(c8ccc(NC9CCC(=O)NC9=O)cc8F)CC7)CC6)CC5)nc4c3F)c12 (stereo not shown) [Compound 140],–,31 to 60%,–
C#Cc1c(F)ccc2cc(O)cc(-c3ncc4c(N5CC6CCC(C5)N6)nc(OCC5(CN6CCC(CN7CCN(c8cc9c(cc8F)C(=O)N(C8CCC(=O)NC8=O)C9=O)CC7)CC6)CC5)nc4c3F)c12 (stereo not shown) [Compound 141],–,11 to 30%,inhibition at 0.1 µM [2]: > 60%
C#Cc1c(F)ccc2cc(O)cc(-c3ncc4c(N5CC6CCC(C5)N6)nc(OCC5(CN6CCC(N7CCN(c8ccc(NC9CCC(=O)NC9=O)cc8F)CC7)CC6)CC5)nc4c3F)c12 (stereo not shown) [Compound 142],–,31 to 60%,–

SMILES,IC50 [1],inhibition at 0.05 µM [2],further results
C#Cc1c(F)ccc2cc(O)cc(-c3ncc4c(N5CC6CCC(C5)N6)nc(OC5CCN(CCCCCNC(=O)CO[C@@H]6C[C@H](C)CC[C@H]6C(C)C)C5)nc4c3F)c12 (stereo partly shown) [Compound 143],–,11 to 30%,–
C#Cc1c(F)ccc2cc(O)cc(-c3ncc4c(N5CC6CCC(C5)N6)nc(OCC5(CN6CC(CN7CCC(c8ccc9c(C%10CCC(=O)NC%10=O)nn(C)c9c8)CC7)C6)CC5)nc4c3F)c12 (stereo not shown) [Compound 144],–,31 to 60%,–
C#Cc1c(F)ccc2cc(O)cc(-c3ncc4c(N5CC6CCC(C5)N6)nc(OCC5(CN6CCN(c7ccc(C(=O)NC8CCC(=O)NC8=O)nc7)CC6)CC5)nc4c3F)c12 (stereo not shown) [Compound 145],–,≤ 10%,–
C#Cc1c(F)ccc2cc(O)cc(-c3ncc4c(N5CC6CCC(C5)N6)nc(OCC5(CN6CCC(CC(=O)N7CCC(c8ccc9c(C%10CCC(=O)NC%10=O)nn(C)c9c8)CC7)CC6)CC5)nc4c3F)c12 (stereo not shown) [Compound 147],–,31 to 60%,–
C#Cc1c(F)ccc2cc(O)cc(-c3ncc4c(N5CC6CCC(C5)N6)nc(OC5CCN(CCOCCNC(=O)CO[C@@H]6C[C@H](C)CC[C@H]6C(C)C)C5)nc4c3F)c12 (stereo partly shown) [Compound 148],–,≤ 10%,–
C#Cc1c(F)ccc2cc(O)cc(-c3ncc4c(N5CC6CCC(C5)N6)nc(OCC5(CN6CCC7(CC6)CC(N6CCN(c8cc9c(cc8F)C(=O)N(C8CCC(=O)NC8=O)C9=O)CC6)C7)CC5)nc4c3F)c12 (stereo not shown) [Compound 152],–,31 to 60%,–
C#Cc1c(F)ccc2cc(O)cc(-c3ncc4c(N5CC6CCC(C5)N6)nc(OCC5(CN6CCC7(CC6)CC(N6CCN(c8cccc9c8C(=O)N(C8CCC(=O)NC8=O)C9=O)CC6)C7)CC5)nc4c3F)c12 (stereo not shown) [Compound 153],–,31 to 60%,–
C#Cc1c(F)ccc2cc(O)cc(-c3ncc4c(N5CC6CCC(C5)N6)nc(OCC5(CN6CCC(C(=O)Nc7ccc8c(C9CCC(=O)NC9=O)nn(C)c8c7)CC6)CC5)nc4c3F)c12 (stereo not shown) [Compound 159],–,31 to 60%,–
C#Cc1c(F)ccc2cc(O)cc(-c3ncc4c(N5CC6CCC(C5)N6)nc(OCC5(CN6CCC7(CC6)CC(N6CC=C(c8cccc9c8n(C)c(=O)n9C8CCC(=O)NC8=O)CC6)C7)CC5)nc4c3F)c12 (stereo not shown) [Compound 161],–,31 to 60%,–
C#Cc1c(F)ccc2cc(O)cc(-c3ncc4c(N5CC6CCC(C5)N6)nc(OCC5(CN6CCC7(CC6)CC(N6CCC(c8cccc(C9CCC(=O)NC9=O)c8)CC6)C7)CC5)nc4c3F)c12 (stereo not shown) [Compound 162],–,≤ 10%,–
C#Cc1c(F)ccc2cc(O)cc(-c3ncc4c(N5CC6CCC(C5)N6)nc(OCC5(CN6CCC7(CC6)CC(Nc6cccc8c(C9CCC(=O)NC9=O)n[nH]c68)C7)CC5)nc4c3F)c12 (stereo not shown) [Compound 163],–,31 to 60%,–
C#Cc1c(F)ccc2cc(O)cc(-c3ncc4c(N5CC6CCC(C5)N6)nc(OCC5(CN6CCC(CNc7cccc8c(C9CCC(=O)NC9=O)nn(C)c78)CC6)CC5)nc4c3F)c12 (stereo not shown) [Compound 165],–,31 to 60%,–
C#Cc1c(F)ccc2cc(O)cc(-c3ncc4c(N5CC6CCC(C5)N6)nc(OCC5(CN6CCC7(CC6)CC(N6CCC(c8ccc(C9CCC(=O)NC9=O)cc8)CC6)C7)CC5)nc4c3F)c12 (stereo not shown) [Compound 166],–,> 60%,–
C#Cc1c(F)ccc2cc(O)cc(-c3ncc4c(N5CC6CCC(C5)N6)nc(OCC5(CN6CCC7(CC6)CC(Nc6ccc8c(C9CCC(=O)NC9=O)nn(C)c8c6)C7)CC5)nc4c3F)c12 (stereo not shown) [Compound 167],–,> 60%,–
C#Cc1c(F)ccc2cc(O)cc(-c3ncc4c(N5CC6CCC(C5)N6)nc(OCC5(CN6CCC7(CC6)CC(N6CCC(c8ccc9c(c8)C(=O)N(C8CCC(=O)NC8=O)C9=O)CC6)C7)CC5)nc4c3F)c12 (stereo not shown) [Compound 170],–,31 to 60%,–
C#Cc1c(F)ccc2cc(O)cc(-c3ncc4c(N5CC6CCC(C5)N6)nc(OCC5(CN6CCC7(CC6)CC(N6CCC(c8cccc9c8C(=O)N(C8CCC(=O)NC8=O)C9=O)CC6)C7)CC5)nc4c3F)c12 (stereo not shown) [Compound 171],–,≤ 10%,–
